Source: PubChem BioAssay (NCI)
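Grown in 96-well plates, cells were treated for 48 hours with each compound at five concentrations. Insufficient inhibition: endpoint recorded as highest concentration tested. The concentration for full growth arrest is given as TGI.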

How the values were obtained:
Test in all cases: NCI tumour cell line growth inhibition, 48 h
[1] = tested on: 786-0 renal
[2] = tested on: A498 renal
[3] = tested on: A549 NSCLC
[4] = tested on: ACHN renal
[5] = tested on: CAKI-1 renal
[6] = tested on: CCRF-CEM leukemia
[7] = tested on: COLO 205 colon
[8] = tested on: DLD-1 colon
[9] = tested on: DMS 273 small cell lung
[10] = tested on: EKVX NSCLC
[11] = tested on: HCC-2998 colon
[12] = tested on: HCT-116 colon
[13] = tested on: HCT-15 colon
[14] = tested on: HL-60(TB) leukemia
[15] = tested on: HOP-62 NSCLC
[16] = tested on: HT29 colon
[17] = tested on: IGROV1 ovarian
[18] = tested on: K-562 leukemia
[19] = tested on: KM12 colon
[20] = tested on: KM20L2 colon
[21] = tested on: LXFL 529 NSCLC
[22] = tested on: M19-MEL melanoma
[23] = tested on: MALME-3M melanoma
[24] = tested on: MOLT-4 leukemia
[25] = tested on: NCI-H23 lung
[26] = tested on: NCI-H460 lung
[27] = tested on: OVCAR-3 ovarian
[28] = tested on: OVCAR-5 ovarian
[29] = tested on: OVCAR-8 ovarian
[30] = tested on: RPMI-8226 leukemia
[31] = tested on: RXF 393 renal
[32] = tested on: SF-268 CNS
[33] = tested on: SF-295 CNS
[34] = tested on: SF-539 CNS
[35] = tested on: SK-MEL-2 melanoma
[36] = tested on: SK-MEL-28 melanoma
[37] = tested on: SK-MEL-5 melanoma
[38] = tested on: SK-OV-3 ovarian
[39] = tested on: SN12C renal
[40] = tested on: SNB-19 CNS
[41] = tested on: SNB-75 CNS
[42] = tested on: SNB-78 CNS
[43] = tested on: SR leukemia
[44] = tested on: SW-620 colon
[45] = tested on: TK-10 renal
[46] = tested on: U251 CNS
[47] = tested on: UACC-257 melanoma
[48] = tested on: UACC-62 melanoma
[49] = tested on: UO-31 renal
[50] = tested on: DMS 114 small cell lung
[51] = tested on: HOP-18 NSCLC
[52] = tested on: LOX IMVI melanoma
[53] = tested on: M14 melanoma
[54] = tested on: NCI-H226 lung
[55] = tested on: NCI-H522 lung
[56] = tested on: OVCAR-4 ovarian
[57] = tested on: XF 498 CNS

Q: What does the source list for `O=C(O)c1nc(-c2ccc(Cl)c(Cl)c2)nc2ccc(Cl)cc12`?
A: TGI [1]: > 100 µM; TGI [2]: > 100 µM; TGI [3]: > 100 µM; TGI [4]: > 100 µM; TGI [5]: > 100 µM; TGI [6]: > 10 µM; TGI [7]: > 100 µM; TGI [8]: > 100 µM; TGI [9]: > 100 µM; TGI [10]: > 100 µM; TGI [11]: > 100 µM; TGI [12]: > 100 µM; TGI [13]: > 100 µM; TGI [14]: 54.2 µM; TGI [15]: > 100 µM; TGI [16]: > 100 µM; TGI [17]: > 100 µM; TGI [18]: > 10 µM; TGI [19]: > 100 µM; TGI [20]: > 100 µM; TGI [21]: > 100 µM; TGI [22]: > 100 µM; TGI [23]: > 100 µM; TGI [24]: > 100 µM; TGI [25]: > 100 µM; TGI [26]: > 100 µM; TGI [27]: > 100 µM; TGI [28]: > 100 µM; TGI [29]: > 100 µM; TGI [30]: > 100 µM; TGI [31]: 69.4 µM; TGI [32]: > 100 µM; TGI [33]: > 100 µM; TGI [34]: > 100 µM; TGI [35]: > 100 µM; TGI [36]: > 100 µM; TGI [37]: > 100 µM; TGI [38]: 43.3 µM; TGI [39]: > 100 µM; TGI [40]: > 100 µM; TGI [41]: 35.4 µM; TGI [42]: 77.6 µM; TGI [43]: > 100 µM; TGI [44]: > 100 µM; TGI [45]: > 100 µM; TGI [46]: > 100 µM; TGI [47]: > 100 µM; TGI [48]: > 100 µM; TGI [49]: > 100 µM

Q: `CC(Oc1ccc(OCC2CCCCC2)cc1)C(=O)NCc1ccco1` (stereo not given) was tested. Which TGI [1] did it give?
A: > 100 µM

Q: And the TGI [2]?
A: 86.7 µM

Q: What about the TGI [3] of the same compound?
A: > 100 µM

Q: And the TGI [4]?
A: > 100 µM

Q: What about the TGI [6] of the same compound?
A: > 100 µM

Q: And the TGI [8]?
A: > 100 µM

Q: What about the TGI [50] of the same compound?
A: 56.6 µM

Q: What about the TGI [9] of the same compound?
A: 94.1 µM

Q: And the TGI [11]?
A: > 100 µM

Q: And the TGI [12]?
A: 76.3 µM

Q: What about the TGI [13] of the same compound?
A: > 100 µM

Q: And the TGI [14]?
A: > 100 µM

Q: What about the TGI [51] of the same compound?
A: > 100 µM

Q: What about the TGI [16] of the same compound?
A: 46.6 µM

Q: And the TGI [17]?
A: > 100 µM

Q: What about the TGI [18] of the same compound?
A: > 100 µM

Q: What about the TGI [19] of the same compound?
A: > 100 µM

Q: What about the TGI [52] of the same compound?
A: 54.3 µM

Q: What about the TGI [21] of the same compound?
A: > 100 µM

Q: What about the TGI [53] of the same compound?
A: 42.6 µM

Q: And the TGI [22]?
A: > 100 µM

Q: What about the TGI [23] of the same compound?
A: 58.7 µM

Q: And the TGI [24]?
A: > 100 µM

Q: And the TGI [54]?
A: 94 µM

Q: And the TGI [26]?
A: > 100 µM

Q: And the TGI [55]?
A: 35.3 µM

Q: And the TGI [27]?
A: > 100 µM

Q: And the TGI [56]?
A: > 100 µM

Q: And the TGI [29]?
A: > 100 µM

Q: And the TGI [31]?
A: 71.4 µM

Q: What about the TGI [32] of the same compound?
A: > 100 µM

Q: What about the TGI [34] of the same compound?
A: 88.1 µM

Q: What about the TGI [35] of the same compound?
A: 59.3 µM

Q: What about the TGI [36] of the same compound?
A: > 100 µM

Q: What about the TGI [37] of the same compound?
A: 31.4 µM

Q: And the TGI [38]?
A: > 100 µM

Q: And the TGI [39]?
A: > 100 µM

Q: What about the TGI [40] of the same compound?
A: > 100 µM

Q: And the TGI [41]?
A: > 100 µM

Q: What about the TGI [42] of the same compound?
A: > 100 µM

Q: And the TGI [45]?
A: > 100 µM

Q: And the TGI [46]?
A: > 100 µM

Q: And the TGI [47]?
A: 70.4 µM

Q: What about the TGI [48] of the same compound?
A: > 100 µM

Q: And the TGI [49]?
A: 92.3 µM

Q: What about the TGI [57] of the same compound?
A: > 100 µM
